The target in test [1] is T1, Tyrosinase (TYR, EC1.14.18.1) from mushroom (Agaricus bisporus, UniProt C7FF04).
T1 construct: purchased Sigma-Aldrich
Briefly: Inhibition of diphenolase activity of tyrosinase with L-DOPA as substrate (spectroscopy at 475 nm; HPLC for catechin). It counts as biochemical. Here is the method: The inhibitory activity of the TPs, i.e., catechin, ECG, and EGCG, and a positive control, i.e., KA, against diphenolase activity of tyrosinase was measured with L-DOPA as a substrate using the reported spectroscopy method.[13,24] Assays were conducted in a 96-well micro-plate and a spectrophotometer reader was used to determine the absorbance.[25] Briefly, 6 μL of 1000 unit per mL tyrosinase solution was combined with potassium phosphate buffer (pH 6.5) and 1 mM KA or TPs (both dissolved in potassium phosphate buffer, pH 6.5). After pre-incubating at 25 °C for 5 min, 150 μL of 1 mM L-DOPA aqueous solution was added, followed by incubation at 25 °C for 10 min, again, before the concentration determination of DOPA quinone at 475 nm absorbance. The total volume of each reaction system was 300 μL. […] The inhibitory activity was expressed by IC50 value, which is equal to the concentration of inhibitor at 50% inhibitory rate according to the following equation:[25]1 [drawing 1] where, A is the optical density (OD475) of potassium phosphate buffer; B, C and D are the OD475 of potassium phosphate buffer with tyrosinase, with both TPs and tyrosinase, and with TPs, respectively.

Test [2] relates to Tyrosinase (TYR, EC1.14.18.1) from mushroom. Briefly: Fluorescence quenching of tyrosinase by TPs (Stern–Volmer analysis). In kind it is binding. To be noted: for bimolecular quenching constant (κq): calculated by KSV/τ0, τ0 10^−8 s; for Stern–Volmer quenching constant (KSV): excited at 274 nm, pH 6.5; for binding constant (KA): static quenching equation. Here is the method:
The fluorescence spectrum of the TP-TYR complex was measured according to our previous work.[27] Briefly, 10 mM TP was titrated into 3 mL potassium phosphate buffer (pH 6.5) containing 10 units tyrosinase under continuous stirring and nitrogen exists. After 5 minutes, tyrosinase was excited at 274 nm and the emission spectrum over the range of 280 nm to 400 nm was detected through a 3 nm slit. The emission spectrum of the tyrosinase solution was also directly measured as a background.
Fluorescence quenching mechanism is usually divided into static or dynamic manner.[46] To clarify the quenching mechanism of the interaction between tyrosinase and TPs, we analyzed the fluorescence quenching data using the Stern–Volmer equation.[47]2 [drawing 2] where F0 and F are the relative fluorescence intensities before and after the addition of inhibitor, respectively; κq is the bimolecular quenching rate constant; τ0 is the fluorescence lifetime at 10^−8 s for most biological macromolecules,[48] [Q] is the concentration of inhibitor and KSV is the Stern–Volmer quenching constant. The Stern–Volmer quenching constant (KSV) determined by linear regression of a curve of F0/F versus [Q] was plotted in Fig. 2 (inset). As listed in Table 1, the KSV value of ECG with less one hydroxyl group on ring B is much higher than that of EGCG. Good linear relationships in three Stern–Volmer plots of TPs are generally the indication of a single type of quenching manner. The calculated κq values by KSV/τ0 are 0.48 × 10^12, 4.10 × 10^12 and 3.13 × 10^12 M^−1 for catechin, ECG and EGCG, respectively. […] For static quenching mechanism, the binding site number (n) and association constant (KA) can be obtained by the following equation:[49]3 [drawing 3]

The test system is the same in test [3]. Briefly: Oximetry: oxygen utilization in oxidation of TPs by tyrosinase and of L-DOPA by the remaining tyrosinase. It counts as biochemical. To be noted: for inactivation rate (k2) of tyrosinase / oxidation rate (k1): fit of oxygen utilization curve, 30 °C, pH 6.5; for partition ratio (r): molecules of inhibitor required to inactivate one molecule of tyrosinase: intercept on abscissa, ESI Fig. 3. Here is the method:
The oxygen consumption in the process of tyrosinase interacting with TPs was monitored with the reported method.[28] Briefly, 0.4 mL of 8.2 mM TP was added to 19.2 mL phosphate buffer (pH 6.5). After equilibrating at 30 °C for 5 min, 0.4 mL of 500 unit per ml tyrosinase was injected to TP solution under continuous stirring. The decrease of oxygen was monitored with the dissolved oxygen meter. In order to evaluate the remaining activity of tyrosinase, L-DOPA was added to the above mixture of tyrosinase and TP after 5 minutes if no oxygen decreasing was observed, followed by monitoring the secondary oxygen utilization in the oxidation reaction of L-DOPA catalyzed by the remaining tyrosinase. The concentration of L-DOPA was 194 μM.
To further reveal tyrosinase inhibitory mechanisms of TPs, we monitored oxygen utilization against time starting from the injecting of TPs into tyrosinase solution using oximetry. The corresponding time-dependent curves of oxygen utilization are depicted in Fig. 4A. In the initial stage, the increase of oxygen utilization for TPs further corroborates that TPs could be oxidized by tyrosinase like-as substrate manner. The time-dependent curves of oxygen utilization can be better fitted with the following equation:[28]4 [drawing 4] where, Ut is the oxygen consumption at time t; E0 is the initial amount of tyrosinase; k1 and k2 are the oxidation rate and the inactivation rate of tyrosinase, respectively. As listed in Table 2, ECG and catechin can inactivate tyrosinase with inactivation rate (k2) of 0.018 and 0.016, respectively, while the inactivation rate of EGCG is ∼4 times lower than catechin. […] Furthermore, the catecholase activities of residual tyrosinase were evaluated by the oxygen utilization of L-DOPA. […] The slope (K) of oxygen consumption curve is positive proportional to the amount of residual tyrosinase.[64] Obviously, the remaining quantity of tyrosinase for EGCG is largest, while the residual amount is least for ECG. […] In this inactivation pathway, the catechol is converted to an intermediate by deprotonation and reductive elimination along with the leaving of forming Cu(0) from catalytic center, leading to the irreversible inactivation of tyrosinase.[28] However, the oxidation of ring B on EGCG or ring G on both ECG and EGCG (the pyrogallol group) catalyzed by tyrosinase should be competitive with the natural substrate (such as L-DOPA) through the diphenolase-like catalytic pathway (as shown in Fig. 5), because the three adjacent hydroxyl groups on the pyrogallol group having larger steric hindrance and worse orientation were unfavorable to the insert of additional oxygen on the aromatic ring.[28] Tyrosinase at last can be reactivated after catalyzing the oxidation of two molecules of EGCG, accounting for the lower inhibitory activity of EGCG than ECG and catechin. […] As shown in ESI Fig. 3 ^† (the intercept on abscissa), inactivating one molecule of tyrosinase requires 14.7 molecules of ECG or 38.7 molecules of catechin, being better consistent with their inactivation rate. The lower inactivation efficiency against tyrosinase explained that catechin has weaker inhibitory activity than ECG.

[4] abbreviates: diphenolase activity, L-DOPA substrate, pH 6.5, 25 °C, read-out: IC50.

Read-outs that look alike come from different tables or passages of the source.

T1 sequence (C7FF04 1-392): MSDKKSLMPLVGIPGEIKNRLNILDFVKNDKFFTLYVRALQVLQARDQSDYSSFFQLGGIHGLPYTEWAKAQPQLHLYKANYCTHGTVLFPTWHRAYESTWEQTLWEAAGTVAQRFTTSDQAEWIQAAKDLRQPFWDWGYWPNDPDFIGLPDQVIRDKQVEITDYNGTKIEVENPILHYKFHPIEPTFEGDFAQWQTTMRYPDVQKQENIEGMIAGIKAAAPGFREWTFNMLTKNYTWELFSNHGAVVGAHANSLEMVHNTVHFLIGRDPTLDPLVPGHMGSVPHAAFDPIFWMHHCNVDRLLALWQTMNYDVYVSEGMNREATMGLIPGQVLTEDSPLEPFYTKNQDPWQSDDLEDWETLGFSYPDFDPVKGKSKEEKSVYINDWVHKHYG

For the molecule `Oc1cc(O)c2c(c1)OC(c1ccc(O)c(O)c1)C(O)C2` (single isomer, unassigned; (+)) [Catechin, (+)-catechin], the concentration for half-maximal inhibition (IC50) (commonly the concentration at which inhibition is half-maximal) in test [1] (setting [4]) was found to be 57.1 µM. In test [2], the “association constant (KA)” value is reported as 0.04 × 10^5, the “bimolecular quenching constant (κq)” value is 4.8e+11 M⁻¹ s⁻¹, the “Stern–Volmer quenching constant (KSV)” value was 4800 M⁻¹ and the “binding constant (KA)” value is on record as 0.04 ×10^5. Besides, in test [3], the “inactivation rate (k2) of tyrosinase” value was 0.016, the “oxidation rate (k1)” value stood at 0.063 and the “partition ratio (r): molecules of inhibitor required to inactivate one molecule of tyrosinase” value is 38.7 molecules.

For the molecule `O=C(OC1Cc2c(O)cc(O)cc2OC1c1ccc(O)c(O)c1)c1cc(O)c(O)c(O)c1` (single isomer, unassigned; (-)) [ECG, (−)-epicatechin gallate], in test [1], the IC50 stood at 22.6 µM. Further, in test [1] (by IC50 values), the “tyrosinase inhibitory activity, fold stronger than that of EGCG” value worked out at 6 fold. Further, in test [2], the “association constant (KA)” value is reported as 0.53 × 10^5, the “bimolecular quenching constant (κq)” value was 4.1e+12 M⁻¹ s⁻¹, the “Stern–Volmer quenching constant (KSV)” value is 41000 M⁻¹ and the “binding constant (KA)” value is 0.53 ×10^5. Also, in test [3], the “inactivation rate (k2) of tyrosinase” value stood at 0.018, the “oxidation rate (k1)” value was determined as 0.068 and the “partition ratio (r): molecules of inhibitor required to inactivate one molecule of tyrosinase” value was 14.7 molecules.

On to `O=C(OC1Cc2c(O)cc(O)cc2OC1c1cc(O)c(O)c(O)c1)c1cc(O)c(O)c(O)c1` (single isomer, unassigned; (-)) [EGCG, (−)-epigallocatechin-3-O-gallate], for which the IC50 in test [1] (setting [4]) stood at 142 µM. Moreover, in test [2], the “association constant (KA)” value is 3.07 × 10^5, the “bimolecular quenching constant (κq)” value is 3.13e+12 M⁻¹ s⁻¹, the “Stern–Volmer quenching constant (KSV)” value came to 31300 M⁻¹ and the “binding constant (KA)” value is on record as 3.07 ×10^5. Further, in test [3], the “inactivation rate, times lower than catechin” value is recorded as approximately 4 times; the “inactivation rate (k2) of tyrosinase” value was determined as 0.004; the “oxidation rate (k1)” value turned out to be 0.007. In addition, the “slope (K) of the residual tyrosinase oxidizing L-DOPA substrate” value in test [3] (oxygen utilization, 194 μM L-DOPA added after TP) was 0.39.

These data come from article PMC9078569, “Understanding the inhibitory mechanism of tea polyphenols against tyrosinase using fluorescence spectroscopy, cyclic voltammetry, oximetry, and molecular simulations” (RSC Advances, 2018).
